Test results from patent US8785400B2, “Methods and compositions relating to islet cell neogenesis” (CureDM Group Holdings, LLC, priority 2006, dated 2014).

What was measured:
[1] = doses up to 10,000 IU/day; cited from earlier work
[2] = tested on: streptozocin-induced diabetic mouse; experiment: Streptozocin-induced diabetic mouse (Example 6); assay type: in vivo; conditions: streptozocin mice; for mean reduction in glucose: from baseline, placebo 9.5%
Source text: The streptozocin-induced diabetic mouse is a convenient animal model of type 1 diabetes because researchers are able to chemically induce diabetes under controlled conditions rather than waiting for mice to become diabetic naturally or by forcing diabetes through prescribed obesity. Based on experience with the streptozocin model in the rat, a high degree of variability was anticipated for the induction of the disease in mice and therefore 60 mice were induced with streptozocin. Mice were injected intraperitoneally with streptozocin at 40 mg/kg in citrate buffer, pH4.5, on 5 consecutive days in an attempt to render them diabetic. A mouse was considered diabetic once its blood glucose level was greater than 16.7 mmol/L (300 mg/dL) for at least 1 week. If the blood glucose level of any animal became too high (>400 mg/dL) the animal was treated with an effective amount of insulin. In this example, 60 male mice, ranging from 6-8 weeks old at the outset of the study, were treated with streptozocin as described above. Those mice that were declared diabetic were then used to test the effectiveness of HIP2 as compared to other test agents.
Animals were group housed in compliance with the National Research Council “Guide for the Care and Use of Laboratory Animals”. The animals received 12 hours light/12 hours dark, except when room lights were turned on during the dark cycle to accommodate study procedures. Room temperature was maintained between 18 to 26° C. at all times. Relative humidity was maintained between 30-70% at all times. All animals were given access to Harlan Teklad Rodent Diet or equivalent and tap water via water bottle. Animals were allowed to acclimate to their new environment for a minimum of 7 days prior to first dosing.
Mice were randomly divided and assigned to study groups. Each study group was assigned treatment with one of 5 test agents (see Treatment section below). Prior to being treated, each mouse was tested for diabetes via monitoring their blood glucose levels. After confirmation that the mice were diabetic (blood glucose levels greater than 16.7 mmol/L (300 mg/dL) for at least 1 week) the mice were dosed with their respective test agent.
Each study group received doses of one of the following test agents: HIP2, HIP1, HIP, Hamster INGAP (SEQ ID NO:1) or isotonic saline “Vehicle” (0.9% NaCl) (negative control). Mice were given doses of their respective agent interperitoneally twice daily (am and pm, +/−2 hours for each administration) at 250 ug/dose, in 100 ul dose volume, for 28 consecutive days. Test agents were prepared once daily by dissolving the appropriate amount of test agent in isotonic saline to result in a 2.5 mg/ml solution. Blood glucose levels were tested every 3 days, at the same time each day, using a glucometer. If the blood glucose level in any animal became too high, the animal was treated with insulin. At the end of the treatment, all surviving animals were euthanized by CO2 asphyxiation following terminal blood collection. Blood samples were collected under CO2 cardiocentesis. The plasma was separated and then frozen at −80° C. For histological analysis, the pancreas from each mouse was removed and snap-frozen.
Blood glucose levels are measured every 3 days and tracked to evaluate differences in glucose levels.

[3] = tested on: pancreatic islets of treated mice; experiment: Quantitative immunohistochemistry image analysis of mouse pancreata (Example 7); assay type: in vivo
Source text: The islet mass of the placebo group was 854,362 μm (2) compared with 2,161,782 μm (2) in HIP-treated mice.
Islet size was not different between HIP treated and control group, whereas, islet number and mass was increased.

[4] = tested on: human pancreatic progenitor cells; experiment: Inverted microscopy of human ductal/progenitor tissue cultures (Example 4); assay type: cell-based
[5] = tested on: type 1 diabetes patients; conditions: single course; after onset of type 1 diabetes, some patients; cited from earlier work
[6] = tested on: diabetic patients; conditions: cited from earlier work

Which adverse effects [1] does the source give for `C=C1CC[C@H](O)C/C1=C/C=C1\CCC[C@]2(C)[C@@H]([C@H](C)CCCC(C)C)CC[C@@H]12` [Vitamin D, cholecalciferol] here?
The adverse effects was “No adverse effects”.

For “HIP: Human proIslet Peptide, 15-mer human counterpart of the hamster INGAP peptide (SEQ ID NO:2) (IGLHDPTQGTEPNGE; Fragment of naturally occurring human REG3 protein)”, which “overall insulin requirements lower compared to controls” value [2] is on record?
The value was 32%.

What about the “insulin requirements (and rate of decrease)” value ([2]; compared to placebo) of the same compound?
The value was “significant reduction”.

And the “mean reduction in glucose” value [2]?
The value was 26.9%.

What about the “islet size vs placebo/control” value ([3]; mouse, in vivo) of the same compound?
The value was “not statistically different”.

What about the “number of islets counted greater than placebo group” value ([3]; p=0.022) of the same compound?
Its value is 62%.

What about the “total islet mass greater than placebo group” value ([3]; p=0.05) of the same compound?
Its value is 153%.

And the islets counted ([3]; placebo 280)?
Its islets counted is 454.

And the islet mass ([3]; placebo 854,362)?
The islet mass was 2,161,782 μm (2).

And the “total islet mass (qualitative)” value ([3]; vs control)?
Its value is “increased”.

What about the “total islet number (qualitative)” value ([3]; vs control) of the same compound?
Its value is “increased”.

What about the “morphology of progenitor tissue cultures (FIG. 7A)” value ([4]; day 2 of treatment (day 12)) of the same compound?
Its value is “forming a nidus of new insulin producing islets”.

What about the “morphology of progenitor tissue cultures (FIG. 7B)” value ([4]; day 6 of treatment (day 18)) of the same compound?
Its value is “forming insulin producing islet like structure”.

For “hOKT3gamma1 (Ala-Ala): anti-CD3 monoclonal antibody”, which “duration of improvement in C-peptide responses and clinical parameters” value [5] is on record?
The value was “at least 2 years”.

Which results are given for “hamster INGAP: non-human islet neogenesis associated peptide, hamster sequence, positive control (SEQ ID NO:1) (IGLHDPSHGTLPNGS; Fragment of naturally occurring hamster INGAP protein)”?
overall insulin requirements lower compared to controls [2]: 14%; mean reduction in glucose [2]: 20%; patients with a >50% increase in GAD65 antibody titers ([6]; 300 mg/day, Phase II): 22 % of the patients; C-peptide secretion ([6]; 600 mg/day): increase in C-peptide secretion; tolerability ([6]; Phase I and II trials): well tolerated; drop out due to injection site reactions ([6]; Phase II trial, diabetic patients): high drop out; effectiveness ([6]; Phase II trial): Little effectiveness; hemoglobin A1C ([6]; type 2 diabetes patients): fell
